{
  "source": "patent US20050008687A1",
  "about": "“Metal-porphyrin-complex-embedded liposomes, production process thereof, and medicines making use of the same” (Makoto Yuasa, priority 2003, published 2005)",
  "key": {"[1]": {"system": "mouse lung cancer cells [Lewis Lung Carcinoma (LLC)]", "test": "Anticancer characteristic test: cytotoxicity test (apoptosis test) by the Alamar Blue technique", "assay_type": "cell-based", "conditions": "FIG. 3", "procedure": "Anticancer characteristics of a Pr-embedded liposome according to the present invention were examined by a cytotoxicity test (apoptosis test) making use of the Alamar Blue technique.\nEmployed were the FeT2 MPyP+4SAS-embedded DMPC liposome system (Invention Product 4, FeT2 MPyP concentrations: 0, 12.5, 25, 50, 100 μM) as a test sample and its corresponding cationic metalloporphyrin complex (FeT2 MPyP) and ion complex system (FeT2 MPyP+4SAS) as reference samples. As cells, on the other hand, mouse lung cancer cells [Lewis Lung Carcinoma (LLC), Riken Gene Bank] were used.\nIn the test, the mouse lung cancer cells were cultured in DMEM medium with 10% FBS added therein. Subsequent to determination of the cell count and adjustment of the cell concentration, the resulting cell suspension was added to the individual wells of a 96-well plate (100 μL/well, cell count: 1×10^4 cells/well), followed by incubation for 24 hours in a carbon dioxide incubator (CO2:5%). After the medium was removed from the plate, sample solutions of the respective concentrations (100 μL/well, sample concentrations: 0 to 100 μM), said sample solutions having had been prepared in advance, were added, followed by further incubation for 24 hours in the CO2 incubator.\nAn Alamar Blue solution, which had been sterilized by filtration, was added at 10 μL/well, followed by incubation for 5 hours. Subsequently, absorbance measurements (measurement wavelength: 570 nm, and reference wavelength: 600 nm) were conducted by using a microplate reader.\nAnticancer characteristics of Pr-embedded liposomes according to the present invention were examined by a cytotoxicity test (apoptosis test) making use of the Alamar Blue technique as in Example 15.\nAs test samples, various Pr-embedded liposomes were used (metalloporphyrin complex concentrations: 0, 12.5, 25, 50, 100 μM). As reference samples, on the other hand, the components of the Pr-embedded liposomes, that is, the metalloporphyrin complexes (concentrations: 0, 12.5, 25, 50, 100 μM) and liposomes (concentrations: 2500, 5000, 10000, 20000 μM) were employed (the concentrations of both of the components were set corresponding to the concentrations of the Pr-embedded liposomes).\nProvided as comparative samples were cisplatin (CDDP; concentrations: 0, 10, 20, 40, 80 μM) and mitomycin C (MMC; concentrations: 0, 7.5, 15, 30, 60 μM), which are anticancer agents employed at present. A test was conducted as in Example 15, and the following results were obtained.\nAnticancer characteristics of pH-sensitive, Pr-embedded liposomes were examined by a cytotoxicity test (apoptosis test) making use of the Alamar Blue technique as in Example 15. […]"}, "[2]": {"test": "SOD activity (O2-. scavenging) by the cytochrome c method", "assay_type": "biochemical", "conditions": "Table 8", "procedure": "The SOD activity (in other words, O2^−. scavenging activity) of each Pr-embedded liposome was evaluated by the cytochrome c method proposed by Mccord and Fridovich or Butler et al. [(1) J. M. Mccord and I. Fridovich, J. Biol. Chem., 244, 6049 (1969) and (2) J. Butler, W. H. Kopenol, E. Margoliash, J. Biol. Chem., 257, 10747 (1982)]. Specifically, the evaluation was conducted as will be described hereinafter. Solutions (Solutions A) of each Pr-embedded liposome were prepared at five or more concentration levels of from 0 to 1,000 μM in terms of the concentration of the metalloporphyrin. […] With the resultant mixture, a 7 μg/mL aqueous catalase solution (0.1 mL) and a 25 U/mL aqueous xanthine oxidase (XOD) solution (0.3 mL) were promptly mixed, and UV-vis was measured with time at 550 nm (absorption peak based on the formation of ferrocytochome c)(the final concentrations of the respective components in the test solution were as follows: the metal porphyrin complex, 0 to 100 SM; xanthine, 0.05 mM; XOD, 2.5U/mL; cytochrome c, 10 μM; catalase, 0.23 μg/mL). […] Finally, the concentration (IC50) of each metalloporphyrin complex at IC=50% was determined from the concentration of metalloporphyrin-versus-IC” relationship, and the IC50 was used as an index of the SOSD-activating effect of the metalloporphyrin complex (smaller IC50 indicates higher SOD activity). […]"}, "[3]": {"test": "SOD activity (O2-. scavenging) by the stopped-flow method", "assay_type": "biochemical", "conditions": "Table 8", "procedure": "The SOD activity (in other words, O2^−. scavenging activity) of each Pr-embedded liposome was evaluated by the stopped-flow method proposed by Riley et al. [D. P. Riley, W. L. Rivers, and R. H. Weiss, Anal. Biochem., 196, 344 (1991)]. Specifically, the evaluation was conducted as will be described hereinafter. At 36° C., a solution of potassium superoxide as an O2^−. production source in dimethylsulfoxide and one of 60 mM HEPES/HEPESNa buffered solutions (pH 8.1), which contained one of the Pr-embedded liposomes at various concentrations, were promptly mixed, and the decay in absorbance at 245 nm due to O2^−. (the decay curve of O2^−. scavenging reaction) was measured with time. From the decay curve, a “ln (absorbance)-versus-time” relationship was determined, and further, an apparent rate constant was calculated from the slope of the relationship. From the slope of the “concentration of metalloporphyrin complex-versus-apparent rate constant” relationship, the rate constant (Kcat) of the O2^−. scavenging reaction was finally determined. As a reference, ion complexes (MnT4 MPyP+1SAS and MnT4 MPyP+4SAS) were also evaluated likewise in SOD activity.\nVarious metalloporphyrin complexes, which represent Pr-embedded liposomes, were compared in SOD activity. […] Incidentally, the samples were prepared and measured as in Examples 19 and 20."}, "[4]": {"conditions": "literature value reported by Fridovich et al.; Table 6; cited from earlier work"}, "[5]": {"conditions": "literature value reported by Ohse, Kawakami et al.; Table 7; cited from earlier work"}},
  "note": "Read-outs that look alike come from different tables or passages of the source.",
  "data": [
    {"compound": "CO[C@@]12[C@H](COC(N)=O)C3=C(C(=O)C(C)=C(N)C3=O)N1C[C@@H]1N[C@@H]12", "note": "[MMC, mitomycin C, reference compound]", "values": [
      {"measurement": "viability of LLC versus added concentration", "setting": "[1]", "value": "dropped as the added concentration increased"}
    ]},
    {"compound": "C[n+]1ccc(-c2c3nc(c(-c4cc[n+](C)cc4)c4ccc([n-]4)c(-c4cc[n+](C)cc4)c4nc(c(-c5cc[n+](C)cc5)c5ccc2[n-]5)C=C4)C=C3)cc1.[Mn+2]", "note": "[MnT4MPyP, manganese[5,10,15,20-tetrakis(4-methylpyridyl)porphyrin]]", "values": [
      {"measurement": "IC50", "setting": "[2]", "value": 740, "unit": "nM"},
      {"measurement": "Kcat", "setting": "[3]", "value": "2.2e+07", "unit": "M⁻¹ s⁻¹"},
      {"measurement": "IC50", "setting": "[4]", "value": 700, "unit": "nM"},
      {"measurement": "Kcat", "setting": "[5]", "value": "2.2e+07", "unit": "M⁻¹ s⁻¹"}
    ]},
    {"compound": "[NH2][Pt]([NH2])([Cl])[Cl]", "note": "[CDDP, cisplatin, reference compound]", "values": [
      {"measurement": "viability of LLC versus added concentration", "setting": "[1]", "value": "dropped as the added concentration increased"}
    ]},
    {"compound": "C[n+]1ccccc1-c1c2nc(c(-c3cccc[n+]3C)c3ccc([n-]3)c(-c3cccc[n+]3C)c3nc(c(-c4cccc[n+]4C)c4ccc1[n-]4)C=C3)C=C2.[Fe+2]", "note": "[FeT2 MPyP, iron[5,10,15,20-tetrakis(2-methylpyridyl)porphyrin]]", "values": [
      {"measurement": "viability of LLC versus added concentration", "setting": "[1]", "value": "dropped as the added concentration increased"},
      {"measurement": "viability of LLC compared with CDDP and MMC", "setting": "[1]; FeT2 MPyP concentrations of 25 μM and higher", "value": "lower than those in the cases of CDDP and MMC"}
    ]}
  ]
}
